US20260102407A1, “TREATMENT METHODS” (priority 2020, published 2026)

Experiments:
[1] = system: VCAM-1; experiment: Western blot, IL-1β-inducible VCAM-1 expression in HMEC-1; assay type: cell-based, human
Protocol: Western blot analysis with extracts of cells treated with IL-13. HMEC-1 (80-90% confluency) were arrested in serum-free MCDB131 medium (Invitrogen, MD) without any growth factor for 48 h. Cells were treated with 30 μM compound in serum-free medium for 4 h, and incubated with 20 ng/ml IL-1β (Sigma, cat. SRE3083) in serum-free medium with the same concentration of compound for up to 4 h, unless otherwise indicated. Total protein was harvested as previously described using RIPA buffer with protease inhibitors. Proteins were resolved on 4-20% (w/v) SDS-polyacrylamide gradient gels and transferred to Immobilon-P PVDF membranes. […] Chemiluminescence was detected using the Western Lightning Chemiluminescence system and ImageQuant™ LAS 4000 biomolecular imager. Band intensity in images generated with the LAS 4000 using the same settings were quantified by NIH ImageJ.

[2] = BT2 formulation analysis by RRLC-MS/MS and LC/MS (stability); assay type: physicochemical; details: for discrepancy in BT2 content: 6 weeks storage at 22° C.
Protocol: BT2 formulation analysis using RRLC-MS/MS. A rapid resolution liquid chromatography/tandem mass spectrometry (RRLC-MS/MS) method was developed under GLP by Iris Pharma using an Agilent 1200 Triple Quad G6410B to determine BT2 content in heat-treated or non-heat treated BT2 formulations at 1 week (T1 week) or 6 weeks (T6 weeks) after preparation at room temperature. The formulations were heat (H)-treated (tubes placed in a 100° C. water bath for 10 min) or non-heat treated sonicated formulations of BT2 in saline containing 0.5% Tween 80 and 0.01% DMSO). Standard curves were constructed with 8 concentrations between the lower limit of quantification (LLOQ) and the upper limit of quantification (ULOQ). Evaluations were performed on 3 preparations at the same dilution. Chromatograms were integrated using MassHunter software. For BT2 content analysis (T1 week and T6 weeks), calculation of mean, SD, CV (%) and bias (%) were performed as follows: For T1, the theoretical concentration (i.e. the weighed/formulated material supplied) was used as reference to calculate the bias (%) of each preparation containing the test sample:
Standard curves were fitted using Excel® version 2011. For each run, bias on back-calculated concentration of the standard curve and QC was determined, with back-calculated concentrations of the calibration standards being set within ±15% of the theoretical value, except for the LLOQ for which it was set within ±20%. At least 75% of the calibration standards, with a minimum of six, must have had to fulfil this criterion and the coefficient of determination (r^2) was set at ≥0.98.
BT2 formulation analysis using liquid chromatography mass spectrometry (LC/MS). DMSO (100 μl) and samples (˜50 μl) were combined along with formic acid (1 μl). These solutions (10 μl) were further diluted with H2O:CH3CN (1:1) 0.1% formic acid (90 μl) for LC/MS analysis. Samples were separated by UPLC using an HPG-3400RS UPLC pump, autosampler and column compartment system (Thermo Scientific, CA). Samples (0.1 μl) were loaded onto a Hypersil Gold aQ column (2.1×50 mm) containing 1.9μ media (Thermo Scientific). Compounds were eluted using a linear gradient of H2O:CH3CN with A containing H2O (0.1% formic acid) and B containing H2O:CH3CN (1:4, 0.1% formic acid). The gradient was: T=0 min 2% B, T=20 min 75% B, T=23 min 95% B, T=25 min, 95% B, T=25.2 min 2% B, T=30 min, 2% at 200 μl/min over 30 min. The column oven was heated to 45° C. Positive ions were generated by electrospray and the QExactive Plus mass spectrometer (Thermo Fisher, Bremen, Germany) operated in data dependent acquisition mode (DDA). The heated electrospray source (HESI) was used with a high voltage 3.8 kV applied; a vaporizer temp of 250° C.; sheath gas 20; aux gas 5 and the heated capillary set to T=290° C. […]

CCOC(=O)Nc1ccc2c(c1)C(=O)N(CC)c1ccccc1O2 [BT2, (10-ethyl-11-oxo-10,11-dihydro-dibenzo[b,f][1,4]oxazepin-2-yl)-carbamic acid ethyl ester]
IL-1β-inducible VCAM-1 expression (Western blot) ([1]; 30 μM, 20 ng/ml IL-1β up to 4 h): inhibited
inhibition of IL-1β-inducible VCAM-1, potency relative to PD98059 ([1]; dose escalation 1-30 μM): more potently than PD98059
stability of formulation after autoclaving ([2]; autoclaved (121° C., 15 psi, 20 min), 4 months storage at 22° C., LC/MS): remained stable
discrepancy in BT2 content ([2]; heat-treated formulation (100° C. for 10 min), RRLC-MS/MS): 1%
degradation of stored formulation ([2]; heat-treated or not, storage up to 16 months, RRLC-MS/MS): no loss in biological efficacy or degradation
discrepancy in BT2 content ([2]; non-heat treated formulation, RRLC-MS/MS): 0.2%
